Measurements as given in patent US20260109707A1, “HETEROBIFUNCTIONAL COMPOUNDS AND METHODS OF TREATING DISEASE” (Halda Therapeutics OpCo. Inc., priority 2022, published 2026).

What was measured:
[1] = test system: T-Rex 293 cell line SC3 cells lacking increased expression of androgen receptor protein; experiment: Cellular growth inhibition assay, T-Rex 293 SC3 cells without doxycycline (CellTiter-Glo, 72 hours); type: cell-based; settings: 72 h, T-Rex 293 cell line SC3 cells not exposed to doxycycline (lacking increased androgen receptor expression)
Procedure, shortened: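 Growth inhibition is measured in an inducible AR-expressing T-Rex 293 clone, SC3, cultured with or without 10 ng/mL doxycycline in hormone-depleted medium. Test compounds are applied for 72 hours. GI50 values derive from CellTiter-Glo 2.0 signal fitted by four-parameter regression.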

[2] = test system: T-Rex 293 cell line SC cells lacking increased expression of progesterone receptor isoform B protein; experiment: Cellular growth inhibition assay, T-Rex 293 SC cells without doxycycline (CellTiter-Glo, 72 hours); type: cell-based; settings: T-Rex 293 SC cells not exposed to doxycycline
Experimental: The following types of cells were prepared for this experiment: (i) a T-Rex 293 cell line having increased expression of progesterone receptor isoform B protein due to exposure to doxycycline and (ii) a T-Rex 293 cell line lacking increased expression of progesterone receptor isoform B protein. Ability of the test compounds to inhibit proliferation of the foregoing cell types was evaluated according to the procedures set forth below.
The doxycycline-inducible progesterone receptor isoform B protein expressing cell line was established using the following protocol: T-Rex 293 cells were purchased from Invitrogen (Cat #R71007) and transfected using Lipofectamine 2000 with the wild-type progesterone receptor B protein sequence cloned into the pcDNA4/TO vector. Transfected cells were selected using 400 μg/mL Zeocin (Invitrogen Cat #R25001). Following selection, single clones were raised and maintained in Dulbecco's Modified Eagle Medium (DMEM) supplemented with 10% w/w Tetracycline-free fetal bovine serum (FBS) and 250 μg/mL Zeocin. Clones were analyzed for expression of progesterone receptor isoform B protein in the presence and absence of 10 ng/mL doxycycline (Sigma Cat #D9891), and a single doxycycline-inducible clone (hereinafter “SC”) was selected for use in downstream assays.
The SC cells were seeded on poly-D-lysine coated, black clear-bottom 384-well plates at 2500/well, in 25 μL Phenol Red Free Dulbecco's Modified Eagle Medium (DMEM) supplemented with 10% w/w charcoal-dextran treated fetal bovine serum (FBS) and 1% w/w pen-strep, with or without 10 ng/mL doxycycline. Pen-Strep is a commercially available mixture of penicillin G and streptomycin, which is used in mammalian cell culture media to prevent bacterial contamination. Phenol Red Free Dulbecco's Modified Eagle Medium (DMEM) supplemented with 10% w/w charcoal-dextran treated fetal bovine serum (FBS) and 1% w/w pen-strep, with or without 10 ng/mL doxycycline is herein referred to as Treatment Medium. Following seeding of cells in the plates, the plates were spun at 300×g for 30 seconds, then equilibrated to room temperature for 30 minutes, and then deposited in a humidified tissue culture incubator maintained at 37° C. with 5% CO2.
At 24 hours after seeding of the cells, dilutions of test compound were prepared in DMSO and dissolved in Treatment Medium, to achieve a final DMSO concentration of 0.5% w/w, thereby providing the Test Compound Solution. A 25 μL aliquot of the Test Compound Solution was added to cells in the well plates. An equal volume of a solution containing DMSO and Treatment Medium was used as a negative control. Following treatment of cells with Test Compound Solution or said equal volume of a solution containing DMSO and Treatment Medium, the plates were spun at 300×g for 30 seconds, and then left in an incubator for 72 hours.
At the end of the treatment duration, cell viability was quantified with CellTiter-Glo 2.0 reagent (Promega Cat #G9243). For this purpose, plates were equilibrated to room temperature for 30 minutes, and then 25 μL of CellTiter-Glo 2.0 reagent was added to cells in the plate wells. Plates were then agitated on a shaker for two minutes at 500 rpm and subsequently incubated at room temperature for 10 minutes. Following incubation, the plates were spun at 3000×g for 30 seconds, then sealed with an optical adhesive cover, and luminescence readings were measured with an EnVision Plate Reader (Perkin Elmer).
Data was normalized using zero luminescence for baseline. A four-parameter non-linear regression curve fit was applied to dose-response data in GraphPad Prism data analysis software to determine the half-maximal growth inhibitory concentration (GI50) for each test compound.

Row | Compound | GI50 [1] | GI50 [2]
1 | CCNC(=O)C[C@@H]1N=C(c2ccc(CCCOC3CCN(c4ccc(C(=O)N[C@H]5CC[C@H](Oc6ccc(C#N)c(Cl)c6)CC5)nn4)CC3)cc2)c2c(sc(C)c2C)-n2c(C)nnc21 [I-17] | < 500 nM | –
2 | CCNC(=O)C[C@@H]1N=C(c2ccc(OCC3CN(c4ccc(C(=O)N[C@H]5CC[C@H](Oc6ccc(C#N)c(Cl)c6)CC5)nn4)C3)cc2)c2c(sc(C)c2C)-n2c(C)nnc21 [I-29] | 500 to 1500 nM | –
3 | CCNC(=O)C[C@@H]1N=C(c2ccc(OCCOCCOC3CCN(c4ccc(C(=O)N[C@H]5CC[C@H](Oc6ccc(C#N)c(Cl)c6)CC5)nn4)CC3)cc2)c2c(sc(C)c2C)-n2c(C)nnc21 [I-10] | 500 to 1500 nM | < 500 nM
4 | CCNC(=O)C[C@@H]1N=C(c2ccc(OCCOC3CCN(c4ccc(C(=O)N[C@H]5CC[C@H](Oc6ccc(C#N)c(Cl)c6)CC5)nn4)CC3)cc2)c2c(sc(C)c2C)-n2c(C)nnc21 [I-8] | < 500 nM | < 500 nM
5 | CCNC(=O)C[C@@H]1N=C(c2ccc(CC3CCN(c4ccc(C(=O)N[C@H]5CC[C@H](Oc6ccc(C#N)c(Cl)c6)CC5)nn4)CC3)cc2)c2c(sc(C)c2C)-n2c(C)nnc21 [I-20] | < 500 nM | 500 to 1500 nM
6 | CCNC(=O)C[C@@H]1N=C(c2ccc(N3CCC(OC4CCN(c5ccc(C(=O)N[C@H]6CC[C@H](Oc7ccc(C#N)c(Cl)c7)CC6)nn5)CC4)CC3)cc2)c2c(sc(C)c2C)-n2c(C)nnc21 [I-44] | 500 to 1500 nM | –
7 | Cc1sc2c(c1C)C(c1ccc(Cl)cc1)=N[C@@H](CC(=O)NCCOCCOCCOC1CCN(c3ccc(C(=O)N[C@H]4CC[C@H](Oc5ccc(C#N)c(Cl)c5)CC4)nn3)CC1)c1nnc(C)n1-2 [I-2, N-[4-(3-chloro-4-cyano-phenoxy)cyclohexyl]-6-[4-[2-[2-[2-[[2-[(9S)-7-(4-chlorophenyl)-4,5,13-trimethyl-3-thia-1,8,11,12-tetrazatricyclo[8.3.0.0^2,6]trideca-2(6),4,7,10,12-pentaen-9-yl]acetyl]amino]ethoxy]ethoxy]ethoxy]-1-piperidyl]pyridazine-3-carboxamide] | 500 to 1500 nM | > 3000 nM
8 | Cc1sc2c(c1C)C(c1ccc(Cl)cc1)=N[C@@H](CC(=O)NCCOC1CCN(c3ccc(C(=O)N[C@H]4CC[C@H](Oc5ccc(C#N)c(Cl)c5)CC4)nn3)CC1)c1nnc(C)n1-2 [I-1, N-[4-(3-chloro-4-cyano-phenoxy)cyclohexyl]-6-[4-[2-[[2-[(9S)-7-(4-chlorophenyl)-4,5,13-trimethyl-3-thia-1,8,11,12-tetrazatricyclo[8.3.0.0^2,6]trideca-2(6),4,7,10,12-pentaen-9-yl]acetyl]amino]ethoxy]-1-piperidyl]pyridazine-3-carboxamide] | 500 to 1500 nM | < 500 nM
9 | CCNC(=O)C[C@@H]1N=C(c2ccc(OCCCN(C)c3ccc(C(=O)N[C@H]4CC[C@H](Oc5ccc(C#N)c(Cl)c5)CC4)nn3)cc2)c2c(sc(C)c2C)-n2c(C)nnc21 [I-48] | 500 to 1500 nM | –
10 | CCNC(=O)C[C@@H]1N=C(c2ccc(N3CC4(C3)CN(c3ccc(C(=O)N[C@H]5CC[C@H](Oc6ccc(C#N)c(Cl)c6)CC5)nn3)C4)cc2)c2c(sc(C)c2C)-n2c(C)nnc21 [I-24] | 500 to 1500 nM | 500 to 1500 nM
